Assay results taken from ChEMBL document CHEMBL1201862, “PubChem BioAssay data set” (2004).
Calls of active or inactive are those of the source.

Experiments:
Type in all cases: functional
[1] = biological target: Beta-2 adrenergic receptor (Homo sapiens, UniProt P07550); assay: ADRB2 activation measured by internalization – cell-based, FAP fluorogen, flow cytometry, cherry pick 1, dose response (AID 588763)
Hexokinase-1 = biological target: T1, Hexokinase-1 (Homo sapiens, UniProt P19367); assay: SAR analysis of small molecule inhibitors of hexokinase domain containing I (HKDC1) in the hexokinase 1 selectivity assay. [Related pubchem assays (depositor defined):AID493160, AID493190]
T1 sequence (P19367 whole entry): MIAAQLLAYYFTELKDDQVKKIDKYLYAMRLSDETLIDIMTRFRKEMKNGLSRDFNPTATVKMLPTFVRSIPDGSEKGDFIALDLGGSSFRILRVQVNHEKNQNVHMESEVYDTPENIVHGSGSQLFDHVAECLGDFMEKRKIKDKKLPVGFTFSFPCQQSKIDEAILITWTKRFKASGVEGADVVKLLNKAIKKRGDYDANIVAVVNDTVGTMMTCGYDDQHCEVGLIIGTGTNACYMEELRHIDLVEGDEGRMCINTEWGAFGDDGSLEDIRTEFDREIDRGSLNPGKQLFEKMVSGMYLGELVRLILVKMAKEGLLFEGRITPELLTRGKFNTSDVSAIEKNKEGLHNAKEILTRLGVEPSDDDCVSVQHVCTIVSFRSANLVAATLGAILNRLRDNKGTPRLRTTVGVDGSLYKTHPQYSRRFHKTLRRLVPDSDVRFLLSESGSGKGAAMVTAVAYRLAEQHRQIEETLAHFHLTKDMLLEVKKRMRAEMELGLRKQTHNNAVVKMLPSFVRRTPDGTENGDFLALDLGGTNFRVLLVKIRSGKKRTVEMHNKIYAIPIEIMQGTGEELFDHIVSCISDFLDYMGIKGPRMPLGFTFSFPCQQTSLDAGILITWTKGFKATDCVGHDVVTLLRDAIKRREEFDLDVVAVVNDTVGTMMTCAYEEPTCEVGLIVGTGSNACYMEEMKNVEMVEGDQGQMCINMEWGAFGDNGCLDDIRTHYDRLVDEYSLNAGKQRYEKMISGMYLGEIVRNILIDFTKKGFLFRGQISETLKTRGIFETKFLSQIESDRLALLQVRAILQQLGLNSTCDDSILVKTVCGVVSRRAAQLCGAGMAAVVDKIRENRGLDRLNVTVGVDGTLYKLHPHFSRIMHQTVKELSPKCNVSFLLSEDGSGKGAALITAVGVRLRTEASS

Hexokinase HKDC1 = biological target: T2, Hexokinase HKDC1 (Homo sapiens, UniProt Q2TB90); assay: SAR analysis of small molecule inhibitors of hexokinase domain containing I (HKDC1). [Related pubchem assays (depositor defined):AID493160, AID493190]
T2 sequence (Q2TB90 whole entry): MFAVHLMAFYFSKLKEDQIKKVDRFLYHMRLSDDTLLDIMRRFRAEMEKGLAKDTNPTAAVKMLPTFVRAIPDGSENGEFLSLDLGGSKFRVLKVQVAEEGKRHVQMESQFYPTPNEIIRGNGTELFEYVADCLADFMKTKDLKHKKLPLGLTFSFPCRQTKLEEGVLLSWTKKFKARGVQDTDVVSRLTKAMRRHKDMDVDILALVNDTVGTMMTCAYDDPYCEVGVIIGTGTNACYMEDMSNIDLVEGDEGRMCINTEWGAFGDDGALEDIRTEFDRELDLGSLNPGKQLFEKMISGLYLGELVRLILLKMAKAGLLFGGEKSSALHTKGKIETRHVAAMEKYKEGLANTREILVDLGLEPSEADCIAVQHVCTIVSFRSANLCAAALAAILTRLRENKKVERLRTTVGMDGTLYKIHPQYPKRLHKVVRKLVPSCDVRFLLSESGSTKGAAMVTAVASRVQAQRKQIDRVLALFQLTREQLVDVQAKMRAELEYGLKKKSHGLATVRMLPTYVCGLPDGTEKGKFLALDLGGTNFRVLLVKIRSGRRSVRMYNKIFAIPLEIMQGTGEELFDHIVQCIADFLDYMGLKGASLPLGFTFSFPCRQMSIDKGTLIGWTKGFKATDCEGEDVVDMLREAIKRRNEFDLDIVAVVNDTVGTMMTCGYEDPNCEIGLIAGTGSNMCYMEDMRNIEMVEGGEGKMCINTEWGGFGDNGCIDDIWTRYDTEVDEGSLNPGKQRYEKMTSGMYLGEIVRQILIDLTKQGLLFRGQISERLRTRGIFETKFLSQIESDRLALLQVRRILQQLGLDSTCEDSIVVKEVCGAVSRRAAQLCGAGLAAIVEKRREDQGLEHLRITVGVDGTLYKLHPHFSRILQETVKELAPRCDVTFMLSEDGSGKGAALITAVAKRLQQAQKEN

[2] = biological target: T3, Type-1 angiotensin II receptor (Homo sapiens, UniProt P30556); assay: antagonism of angiotensin II type 1 receptor – cell-based, uHTS hits, selectivity assay for APJ receptor antagonist project, dose response (AID 463214);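 also: antagonist potency against angiotensin II stimulated AT1 response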
T3 sequence (P30556 whole entry): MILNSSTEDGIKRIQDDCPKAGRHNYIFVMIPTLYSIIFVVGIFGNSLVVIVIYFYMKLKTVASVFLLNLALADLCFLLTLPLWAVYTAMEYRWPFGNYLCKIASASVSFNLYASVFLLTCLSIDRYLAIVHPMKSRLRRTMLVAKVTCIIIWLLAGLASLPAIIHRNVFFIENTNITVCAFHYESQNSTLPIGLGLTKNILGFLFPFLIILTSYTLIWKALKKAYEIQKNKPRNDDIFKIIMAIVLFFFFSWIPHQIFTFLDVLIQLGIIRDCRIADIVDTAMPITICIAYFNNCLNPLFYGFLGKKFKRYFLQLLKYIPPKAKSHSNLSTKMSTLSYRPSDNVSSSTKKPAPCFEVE

Beta-galactosidase = Beta-galactosidase (Escherichia coli, UniProt Q8VNN2); assay: PubChem AID 485352
Chain of Beta-galactosidase (Q8VNN2 whole entry): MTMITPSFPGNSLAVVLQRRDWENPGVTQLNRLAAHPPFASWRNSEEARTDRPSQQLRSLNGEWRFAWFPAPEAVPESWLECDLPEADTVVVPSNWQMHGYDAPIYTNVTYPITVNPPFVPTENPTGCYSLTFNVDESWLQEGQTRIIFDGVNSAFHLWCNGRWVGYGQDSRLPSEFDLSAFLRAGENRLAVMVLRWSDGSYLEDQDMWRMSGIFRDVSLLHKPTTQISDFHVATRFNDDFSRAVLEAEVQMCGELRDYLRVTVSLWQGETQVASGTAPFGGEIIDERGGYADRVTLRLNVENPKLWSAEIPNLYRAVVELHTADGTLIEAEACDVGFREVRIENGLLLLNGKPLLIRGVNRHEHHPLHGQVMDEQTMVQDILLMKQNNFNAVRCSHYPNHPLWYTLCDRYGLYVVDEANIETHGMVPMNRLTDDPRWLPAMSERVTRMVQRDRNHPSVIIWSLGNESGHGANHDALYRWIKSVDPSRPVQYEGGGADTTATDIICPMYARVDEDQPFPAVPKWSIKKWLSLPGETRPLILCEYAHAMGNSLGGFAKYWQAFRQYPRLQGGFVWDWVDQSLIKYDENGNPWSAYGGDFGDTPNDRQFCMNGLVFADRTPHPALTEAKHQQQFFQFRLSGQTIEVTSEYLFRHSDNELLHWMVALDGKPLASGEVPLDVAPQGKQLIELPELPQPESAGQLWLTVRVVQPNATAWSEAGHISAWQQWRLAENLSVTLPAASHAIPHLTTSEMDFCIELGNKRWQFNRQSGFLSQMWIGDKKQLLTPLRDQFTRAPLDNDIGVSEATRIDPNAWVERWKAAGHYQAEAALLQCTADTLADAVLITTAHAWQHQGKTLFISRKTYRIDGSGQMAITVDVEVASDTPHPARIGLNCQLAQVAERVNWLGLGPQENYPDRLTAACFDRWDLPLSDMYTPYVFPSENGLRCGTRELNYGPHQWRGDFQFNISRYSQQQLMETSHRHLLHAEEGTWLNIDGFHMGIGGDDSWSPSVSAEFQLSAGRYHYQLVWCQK

Chain of Beta-2 adrenergic receptor (P07550 whole entry, the tested form may be a part): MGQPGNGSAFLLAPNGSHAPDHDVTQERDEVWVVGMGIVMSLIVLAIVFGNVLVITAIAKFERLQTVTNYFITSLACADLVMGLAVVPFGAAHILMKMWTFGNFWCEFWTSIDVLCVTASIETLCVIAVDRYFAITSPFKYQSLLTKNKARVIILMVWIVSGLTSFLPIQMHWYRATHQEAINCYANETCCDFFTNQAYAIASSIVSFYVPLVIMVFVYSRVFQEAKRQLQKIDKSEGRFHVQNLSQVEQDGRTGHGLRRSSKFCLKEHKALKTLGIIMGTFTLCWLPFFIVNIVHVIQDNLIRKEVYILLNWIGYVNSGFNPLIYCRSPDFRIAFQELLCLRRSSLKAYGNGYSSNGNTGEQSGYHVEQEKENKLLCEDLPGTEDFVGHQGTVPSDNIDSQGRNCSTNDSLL

CCSc1nc2ccccc2n1C(=O)c1ccc(S(=O)(=O)N2CCCCCC2)cc1
EC50 [1]: 12.5 µM (inactive)

COc1ccc(NC(=O)c2ccc(NC(=O)c3scnc3C)cc2)cc1
IC50 (Hexokinase-1): > 80 µM (inactive) | IC50 (Hexokinase HKDC1): > 80 µM (inactive)

O=C(Cc1ccccc1)NCC(=O)OCC(=O)c1cccc([N+](=O)[O-])c1
IC50 [2]: 23.2 µM (not active) | EC50 (Beta-galactosidase): > 40 µM (inactive)
